Assay [1] relates to rabbit eye. The assay is described as follows: Reduction in intraocular pressure following topical ocular (corneal) insulin administration, rabbit. The class given is in vivo. As to conditions: repeated small volume applications on upper third of the cornea. As for the experimental part: (§1) Several Insulin preparations were administered to the cornea of rats and rabbits by repeated small volume applications on the upper third of the cornea with necessary measures to minimize conjunctival absorption and drainage to the nasal cavity. Reductions in intraocular pressure ranged from 28% to 36.5% in the rabbit eye and 22% to 29% in the rat eye.

Assay [2] deals with rat eye. Description: Reduction in intraocular pressure following topical ocular (corneal) insulin administration, rat. The class given is in vivo. Particulars: repeated small volume applications on upper third of the cornea. As for the experimental part:
as §1

Assay [3] concerns filtering bleb. Description: Success rate of filtering bleb after trabeculectomy. The format is in vivo, rabbit. As to conditions: rabbits after trabeculectomy; daily injections to the filtering bleb. As for the experimental part:
15 rabbits underwent trabeculectomy. Five rabbits were treated with daily insulin injections to the filtering bleb, 5 others received denaturized insulin and another 5 rabbits received same volume and same frequency of balanced salt solution. The results of successful blebs at month 4 were 4 out of 5 for the insulin group, and 2 out of 5 and 3 out of 5 for the denaturized insulin and the balanced salt solution respectively.

For assay [4], the system named is diabetic patients. The assay is described as follows: Systemic insulin and intraocular pressure in humans. The format is in vivo, human. An excerpt:
Recently there is a growing worldwide trend towards appreciating the merits of insulin in the treatment of diabetic patients. Contrary to the previous practice, patient are encouraged now to switch from oral hypoglycemic treatment to insulin treatment, or even to start therapy with insulin without a period of therapy with the oral hypoglycemic agents. Twelve diabetic patients were scheduled to start insulin therapy. […] None of them had been found with diabetic retinopathy or glaucoma. The drug prescription history was reviewed, and none of the twelve patients was found with systemic therapy that can affect the intraocular pressure measurements. So far, none of them was switched to systemic therapy with drugs that can affect the intraocular pressure. Pachymetry measurements have shown stability, without correlation with the level of intraocular pressure. There was also no correlation between blood glucose levels and the intraocular pressure. The patients were followed at 2 weeks interval in first months and then once every 3 weeks. […] After 2 months reduction in intraocular pressure was higher than 15% from baseline in all cases. At the end of 3 months the reduction in intraocular pressure for all patients ranged from 24% up to 35% from baseline. This level of intraocular pressure reduction was maintained during the follow up until now.

For “denaturized insulin: similar insulin preparation that was denaturized, used as control”, the “reduction in intraocular pressure” value in assay [1] and in assay [2] was “no stastistically significant change” each time. Besides, the “successful blebs at month 4” value in assay [3] is 2 out of 5.
Consider insulin, for which the “intraocular pressure versus baseline” value in assay [4] (1 month after starting insulin therapy, twelve diabetic patients) is on record as “significantly lower than baseline values only in 5 patients”. Besides, the “reduction in intraocular pressure from baseline” value in assay [4] (after 2 months of insulin therapy, all cases) is “higher than 15%”. The “successful blebs at month 4” value in assay [3] was 4 out of 5.

The values above are taken from patent publication US20100310637A1, “COMPOSITION AND METHOD FOR THE TREATMENT OR PREVENTION OF GLAUCOMA AND OCULAR HYPERTENSION” (priority 2007, published 2010).
